From US20120165319A1, “INHIBITORS OF INTERLEUKIN-1 BETA CONVERTING ENZYME” (VERTEX PHARMACEUTICALS INCORPORATED, priority 1995, published 2012)

Key:
[1] = system: IL-1β levels in the peritoneal fluid, carrageenan-challenged mice; assay: Mouse carrageenan peritoneal inflammation; assay type: in vivo; conditions: oral administration; 214e at 50 mg/kg; result in words
Description: Mouse Carrageenan Peritoneal Inflammation
Inflammation was induced in mice with an intraperitoneal (IP) injection of 10 mg carrageenan in 0.5 ml of saline (Griswold et al., Inflammation, 13, pp. 727-739 (1989)). Drugs are administered by oral gavage in ethanol/PEG/water, β-cyclodextrin, labrosol/water or cremophor/water vehicle. The mice are sacrificed at 4 hours post carrageenan administration, then injected IP with 2 ml of saline containing 5 U/ml heparin. After gentle massage of the peritoneum, a small incision is made, the contents collected and volume recorded. Samples are kept on ice until centrifuged (130×g, 8 mins at 4° C.) to remove cellular material, and the resultant supernatant stored at −20° C. IL-1β levels in the peritoneal fluid are determined by ELISA.

[2] = system: male DBA/1J mice, type II collagen-induced arthritis; assay: Type II collagen-induced arthritis; assay type: in vivo, mouse; conditions: oral gavage twice a day 10, 25 and 50 mg/kg (214e: 50 mg/kg once a day), Arthritis Severity Score, result in words
Description: Type II Collagen-Induced Arthritis
Type II collagen-induced arthritis was established in male DBA/1J mice at described Wooley and Geiger (Wooley, P. H., Methods in Enzymology, 162, pp. 361-373 (1988) and Geiger, T., Clinical and Experimental Rheumatology, 11, pp. 515-522 (1993)). Chick sternum Type II collagen ([…] in 10 mM acetic acid) was emulsified with an equal volume of Freund's complete adjuvant (FCA) by repeated passages (400) between two 10 ml glass syringes with a gauge 16 double-hub needle. Mice were immunized by intradermal injection (50 μl; […], CII per mouse) of collagen emulsion 21 days later at the contra-lateral side of the tail base. Drugs were administered twice a day (10, 25 and 50 mg/kg) by oral gavage approximately 7 h apart. Vehicles used included ethanol/PEG/water, β-cyclodextrin, labrosol/water or cremophor/water. Drug treatments were initiated within 2 h of the CII booster immunization. Inflammation was scored on a 1 to 4 scale of increasing severity on the two front paws and the scores are added to give the final score.

[3] = In vivo bioavailability determination (oral, rat)
Description: In Vivo Bioavailability Determination
The drugs (10-100 mg/kg) were dosed orally to rats (10 mL/kg) in ethanol/PEG/water, β-cyclodextrin, labrosol/water or cremophor/water. Blood samples were drawn from the carotid artery at 0.25, 0.50, 1, 1.5, 2, 3, 4, 6, and 8 hours after dosing, centrifuged to plasma and stored at −70° C. until analysis. Aldehyde concentrations were determined using an enzymatic assay. Pharmacokinetic analysis of data was performed by non-linear regression using RStrip (MicroMath Software, UT).

[4] = biological target: T1, ICE (Homo sapiens, UniProt P29466); assay: Inhibition of IGIF processing by ICE inhibitors, measured in ICE inhibition assays (Example 27, Table 22); assay type: biochemical; conditions: read-out: UV-Visible Ki
T1 sequence (P29466 120-297 limits assumed): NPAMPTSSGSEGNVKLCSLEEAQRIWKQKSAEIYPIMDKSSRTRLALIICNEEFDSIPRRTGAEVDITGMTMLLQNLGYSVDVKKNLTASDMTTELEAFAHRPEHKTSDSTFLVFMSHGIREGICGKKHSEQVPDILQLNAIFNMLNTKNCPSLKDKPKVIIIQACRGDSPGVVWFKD
T1 sequence (P29466 317-404 limits assumed): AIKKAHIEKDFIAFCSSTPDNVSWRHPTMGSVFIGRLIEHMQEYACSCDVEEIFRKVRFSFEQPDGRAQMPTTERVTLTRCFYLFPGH
Description: Inhibition of IGIF processing by ICE inhibitors was measured in ICE inhibition assays as described herein (see Example 1 and Table 22).

[5] = system: IL-1β, human PBMC; assay: Human PBMC assay (Example 27): IL-1β production; assay type: cell-based; conditions: Homo sapiens, PBMC; Table 22; read-out: Cell PBMC avg. IC50
Description: Since the processing and secretion of biologically active IGIF is mediated by ICE, we compared the activity of a reversible ICE inhibitor (Ac-YVAD-CHO) on IL-1β and IFN-γ production in a peripheral blood mononuclear cell (PBMC) assay (Examples 27).
Human buffy coat cells were obtained from blood donors and peripheral blood mononuclear cells (PBMC) were isolated by centrifugation in LeukoPrep tubes (Becton-Dickinson, Lincoln Park, N.J.). PBMC were added (3×10^6/well) to 24 well Corning tissue culture plates and after 1 hr incubation at 37° C., non-adherent cells were removed by gently washing. Adherent mononuclear cells were stimulated with LPS (1 μg/ml) with or without ICE inhibitor in 2 ml RPMI-1640-10% FBS. After 16-18 hr incubation at 37° C., IGIF and IFN-γ were quantitated in culture supernatants by ELISA.

Compound | inhibition of IL-1β production in carrageenan-challenged mice [1] | inhibition of inflammation / progression of type II collagen-induced arthritis [2] | blood levels of drug when dosed orally ([3]; oral 10-100 mg/kg, result in words) | Drug Availability ([3]; oral, dose 45 mg/kg) | Cmax ([3]; plasma, oral, dose 45 mg/kg, read-out: Cmax) | Ki [4] | IC50 [5]
O=C[C@H](CC(=O)O)NC(=O)[C@@H]1CCCN2C(=O)CC[C@H](NC(=O)c3ccccc3)C(=O)N12 [Compound 214e, [3S(1S,9S)]3-(9-Benzoylamino-6,10-dioxo-1,2,3,4,7,8,9,10-octahydro-6H-pyridazino[1,2-a][1,2]-diazepine-1-carboxamido)-4-oxobutanoic acid] | did not inhibit IL-1β production | did not inhibit inflammation | not detected | 0.9% | 200 ng/mL | – | –
O=C[C@H](CC(=O)O)NC(=O)[C@@H]1CCCN2C(=O)CC[C@H](NC(=O)c3nccc4ccccc34)C(=O)N12 [Compound 412, [3S(1S,9S)]3-[6,10-Dioxo-9-(isoquinolin-1-oylamino)-1,2,3,4,7,8,9,10-octahydro-6H-pyridazino[1,2-a][1,2]diazepine-1-carboxamido]-4-oxobutanoic acid] | – | – | – | – | – | 0.0013 µM | 0.58 µM
